This note sets out measurements from ChEMBL document CHEMBL4811301, “Synthesis and biological evaluation of 3-styrylchromone derivatives as selective monoamine oxidase B inhibitors” (Bioorg Med Chem, 2021).

Where only a bound is given, the exact number is not on record here.

For one test, the species on record is Homo sapiens. Put plainly: Selectivity index, ratio of IC50 for recombinant human MAO-A to IC50 for recombinant human MAO-B.
Test [1] addresses T1, Amine oxidase [flavin-containing] B (Homo sapiens, UniProt P27338).
T1 sequence (P27338 whole entry): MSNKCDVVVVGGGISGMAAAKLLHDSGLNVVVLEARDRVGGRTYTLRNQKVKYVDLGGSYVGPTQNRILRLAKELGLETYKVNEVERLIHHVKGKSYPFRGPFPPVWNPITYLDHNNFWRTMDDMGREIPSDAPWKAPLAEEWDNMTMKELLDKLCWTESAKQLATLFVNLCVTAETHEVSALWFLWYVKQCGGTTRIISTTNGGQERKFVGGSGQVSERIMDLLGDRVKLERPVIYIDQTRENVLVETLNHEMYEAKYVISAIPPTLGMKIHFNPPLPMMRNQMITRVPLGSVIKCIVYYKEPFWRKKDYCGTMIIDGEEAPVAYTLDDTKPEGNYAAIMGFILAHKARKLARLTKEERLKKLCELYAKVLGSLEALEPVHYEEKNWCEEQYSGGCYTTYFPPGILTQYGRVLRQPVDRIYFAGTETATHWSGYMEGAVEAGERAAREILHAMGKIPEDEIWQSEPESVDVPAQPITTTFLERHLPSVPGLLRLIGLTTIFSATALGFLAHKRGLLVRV
The test is described as follows: Inhibition of human recombinant MAO-B using kynuramine as substrate incubated for 20 mins measuring increase in emission signal at 400 nm multimode plate reader assay.

The target in test [2] is T2, Amine oxidase [flavin-containing] A (Homo sapiens, UniProt P21397).
T2 sequence (P21397 whole entry): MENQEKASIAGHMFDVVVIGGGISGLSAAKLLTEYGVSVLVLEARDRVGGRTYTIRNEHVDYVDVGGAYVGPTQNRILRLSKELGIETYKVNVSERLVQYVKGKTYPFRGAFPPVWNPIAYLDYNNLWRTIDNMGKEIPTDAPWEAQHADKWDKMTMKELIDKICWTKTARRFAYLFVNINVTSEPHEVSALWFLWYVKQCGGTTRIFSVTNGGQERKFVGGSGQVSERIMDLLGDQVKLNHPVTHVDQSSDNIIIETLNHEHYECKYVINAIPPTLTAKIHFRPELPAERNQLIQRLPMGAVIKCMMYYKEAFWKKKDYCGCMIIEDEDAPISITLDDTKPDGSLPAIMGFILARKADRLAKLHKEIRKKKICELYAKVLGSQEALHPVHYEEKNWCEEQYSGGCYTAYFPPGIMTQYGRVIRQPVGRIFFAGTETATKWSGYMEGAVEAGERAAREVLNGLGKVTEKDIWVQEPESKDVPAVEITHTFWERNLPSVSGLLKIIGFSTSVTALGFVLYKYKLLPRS
Put plainly: Inhibition of human recombinant MAO-A […] as incubated for 20 mins measuring increase in emission signal at 310 nm multimode plate reader assay.

In test [3] the target is T1, Amine oxidase [flavin-containing] B. Put plainly: Mixed type inhibition of human recombinant MAO-B by Lineweaver-Burk plot analysis.

`COc1ccc2c(=O)c(/C=C/c3cc(OC)c(OC)c(OC)c3)coc2c1`: the Selectivity Index in the test filed under Homo sapiens was determined as 348. Also, the IC50 (as a rule, the concentration that gives 50% inhibition) in test [1] came to 21 nM; in test [2], 7300 nM.
For `COc1ccc2occ(/C=C/c3ccc(F)cc3)c(=O)c2c1` the same measures were 11, 34 nM and 380 nM.
Take `COc1ccc2c(=O)c(/C=C/c3ccccc3)coc2c1`: the Selectivity Index in the test filed under Homo sapiens came to 8. The IC50 worked out at 16 nM in test [1] and 120 nM in test [2].
Take `COc1ccc2occ(/C=C/c3ccc(N(C)C)cc3)c(=O)c2c1`: the Selectivity Index in the test filed under Homo sapiens stood at 257. The IC50 came to 230 nM in test [1] and 59000 nM in test [2].
The matching figures for `CN(C)c1ccc(/C=C/c2coc3ccccc3c2=O)cc1`: 875, 48 nM and 42000 nM.
With `COc1ccc2c(=O)c(/C=C/c3ccc(OC)c(OC)c3)coc2c1`, the Selectivity Index in the test filed under Homo sapiens was found to be 576. Also, the figures for the concentration for half-maximal inhibition (IC50) in test [1] and in test [2] were 33 nM and 19000 nM, respectively.
Take `COc1ccc2occ(/C=C/c3ccccc3)c(=O)c2c1`: in the test filed under Homo sapiens, the Selectivity Index is 33. Moreover, the IC50 in test [1] was 75 nM; in test [2] it was 2500 nM.
Regarding `COc1ccc2c(=O)c(/C=C/c3ccc(O)cc3)coc2c1`, the IC50 in test [1] stood at 47 nM; in test [2] it was 22 nM.
As for `O=c1c(/C=C/c2ccc(O)cc2)coc2ccccc12`, the Selectivity Index in the test listed under Homo sapiens amounted to 70. The IC50 in test [1] came to 37 nM; in test [2], 2600 nM.
For `COc1ccc2occ(/C=C/c3ccc(OC)c(OC)c3)c(=O)c2c1` the same measures were 76, 800 nM and 61000 nM.
Take `O=c1c(/C=C/c2ccccc2)coc2ccccc12`: the Ki (commonly a measure of affinity in units of concentration, obtained from inhibition or displacement) in test [3] came to 18 nM. Also, in the test listed under Homo sapiens, the Selectivity Index is > 3700. For the same compound, the results for the IC50 in test [1] and in test [2] were 27 nM and > 100000 nM, respectively.
`COc1ccc2c(=O)c(/C=C/c3ccc(F)cc3)coc2c1`: the IC50 in test [1] was determined as 3.1 nM; in test [2], 14 nM.
Consider `O=c1c(/C=C/c2ccc(Cl)cc2)coc2ccccc12`, for which, in the test filed under Homo sapiens, the Selectivity Index was found to be 66. Further, the figures for the IC50 in test [1] and in test [2] were 5.9 nM and 390 nM, respectively.
As for `COc1ccc(/C=C/c2coc3cc(OC)ccc3c2=O)cc1`, the Selectivity Index in the test filed under Homo sapiens came to 10. In addition, the IC50 in test [1] was 6.8 nM; in test [2], 69 nM.
In the case of `COc1ccc2c(=O)c(/C=C/c3ccc(Cl)cc3)coc2c1`, the Ki in test [3] stood at 1.5 nM. Also, the Selectivity Index in the test listed under Homo sapiens was 11. Further, the IC50 came to 2.2 nM in test [1] and 25 nM in test [2].
Regarding `O=c1c(/C=C/c2ccc(F)cc2)coc2ccccc12`, the Selectivity Index in the test filed under Homo sapiens is 72. In addition, the IC50 in test [1] is 8.6 nM; in test [2], 620 nM.
For `COc1ccc2occ(/C=C/c3ccc(Cl)cc3)c(=O)c2c1` the same measures were 146, 28 nM and 4100 nM.
On to `COc1ccc2occ(/C=C/c3ccc(O)cc3)c(=O)c2c1`, for which the IC50 in test [1] was 330 nM; in test [2], 8700 nM.
As for `COc1ccc(/C=C/c2coc3ccccc3c2=O)cc1OC`, the Selectivity Index in the test filed under Homo sapiens was determined as 206. The IC50 in test [1] worked out at 160 nM; in test [2] it was 33000 nM.
For `COc1ccc(/C=C/c2coc3ccccc3c2=O)cc1` the same measures were > 3400, 29 nM and > 100000 nM.
In the case of `COc1ccc2c(=O)c(/C=C/c3ccc(N(C)C)cc3)coc2c1`, the Selectivity Index in the test listed under Homo sapiens came to 80. The IC50 in test [1] was determined as 6.1 nM; in test [2] it was 490 nM.
Turning to `COc1ccc(/C=C/c2coc3ccc(OC)cc3c2=O)cc1`, in the test listed under Homo sapiens, the Selectivity Index amounted to 233. Also, the results for the IC50 in test [1] and in test [2] were 150 nM and 35000 nM, respectively.
With `COc1cc(/C=C/c2coc3ccccc3c2=O)cc(OC)c1OC`, in the test listed under Homo sapiens, the Selectivity Index is 291. Further, the IC50 in test [1] was found to be 230 nM; in test [2], 67000 nM.
Consider `COc1ccc2occ(/C=C/c3cc(OC)c(OC)c(OC)c3)c(=O)c2c1`, for which the Selectivity Index in the test listed under Homo sapiens was > 40. For the same compound, the IC50 in test [1] is 2500 nM; in test [2] it was > 100000 nM.
